Measurements published in US20130184222A1, “[…] ACTIVE COMPOSITIONS AND THEIR METHODS OF USE” (AGIOS PHARMACEUTICALS, INC, priority 2010, published 2013).

What follows are compounds tested against IDH1 R132H (Homo sapiens, UniProt O75874, R132H) (assay: In vitro assay for IDH1 R132H inhibitors (NADPH/aKG, resazurin detection)). Details: Table 4A; 0.2 μg/ml IDH1 R132H, 50 minutes at room temperature; read-out: IC50 (uM), IDH1 R132H Inhibition.
Assay type: biochemical
Procedure: Assays were conducted in a volume of 76 μl assay buffer (150 mM NaCl, 10 mM MgCl2, 20 mM Tris pH 7.5, 0.03% bovine serum albumin) as follows in a standard 384-well plate: To 25 ul of substrate mix (8 uM NADPH, 2 mM aKG), 1 μl of test compound was added in DMSO. The plate was centrifuged briefly, and then 25 μl of enzyme mix was added (0.2 μg/ml IDH1 R132H) followed by a brief centrifugation and shake at 100 RPM. The reaction was incubated for 50 minutes at room temperature, then 25 μl of detection mix (30 μM resazurin, […]) was added and the mixture further incubated for 5 minutes at room temperature. The conversion of resazurin to resorufin was detected by fluorescent spectroscopy at Ex544 Em590 c/o 590.
The compounds of Formula I set forth in Table 1 and the compounds set forth in Table 2 were tested in this assay and the results set forth below in Table 4A and 4B.

Sequence of IDH1 R132H (O75874 whole entry R132H): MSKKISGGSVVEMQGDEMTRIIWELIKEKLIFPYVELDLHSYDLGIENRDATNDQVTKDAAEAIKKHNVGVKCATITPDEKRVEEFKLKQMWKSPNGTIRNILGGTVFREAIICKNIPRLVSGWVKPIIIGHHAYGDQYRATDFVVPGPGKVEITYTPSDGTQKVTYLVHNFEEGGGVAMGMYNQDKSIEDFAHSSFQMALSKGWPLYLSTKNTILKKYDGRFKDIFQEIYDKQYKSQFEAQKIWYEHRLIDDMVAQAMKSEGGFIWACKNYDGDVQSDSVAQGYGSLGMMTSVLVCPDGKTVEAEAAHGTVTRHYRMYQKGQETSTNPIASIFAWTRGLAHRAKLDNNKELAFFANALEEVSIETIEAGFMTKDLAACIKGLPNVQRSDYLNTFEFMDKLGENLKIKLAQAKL

SMILES | IC50
O=C(NC1CCCCC1)C(c1ccc(Cl)cc1)N(C(=O)Cc1cccs1)c1cccc(F)c1 (stereo not drawn) [Compound 79] | 0.1 to 1 µM
Cc1ccccc1C(C(=O)NC1CCCCC1)N(C(=O)CNS(=O)(=O)c1ccccc1)c1cccc(F)c1 (stereo not drawn) [Compound 29] | 0.1 to 1 µM
O=C(NC1CCCCC1)C(c1ccccc1F)N(C(=O)Cc1cccs1)c1cccc(F)c1 (stereo not drawn) [Compound 34] | ≤ 0.1 µM
O=C(NC1CCCCC1)C(c1ccccc1F)N(C(=O)CNS(=O)(=O)c1ccccc1)c1ccccc1F (stereo not drawn) [Compound 10] | 0.1 to 1 µM
O=C(NC1CCCCC1)C(c1ccccc1)N(C(=O)Cc1cccs1)c1ccccc1F (stereo not drawn) [Compound 36] | 0.1 to 1 µM
O=C(NC1CCCCC1)C(c1ccccc1F)N(C(=O)c1ccccn1)c1ccccc1F (stereo not drawn) [Compound 60] | 0.1 to 1 µM
Cc1ccc(C(C(=O)NC2CCCCC2)N(C(=O)Cc2cccs2)c2cccc(F)c2)cc1 (stereo not drawn) [Compound 78] | 0.1 to 1 µM
O=C(NC1CCCC1)C(c1ccccc1Cl)N(C(=O)Cc1cccs1)c1cccc(F)c1 (stereo not drawn) [Compound 44] | ≤ 0.1 µM
CC(C)(C(=O)NC1CCCC1)N(C(=O)Cc1cccs1)c1cccc(F)c1 [Compound 21] | ≥ 100 µM
O=C(NC1CCCCC1)C(c1cccc(O)c1)N(C(=O)Cc1cccs1)c1cccc(F)c1 (stereo not drawn) [Compound 91] | 0.1 to 1 µM
Cc1ccccc1C(C(=O)NC1CCCCC1)N(C(=O)Cc1cccs1)c1cccc(F)c1 (stereo not drawn) [Compound 15] | ≤ 0.1 µM
O=C(NC1CCCCC1)C(c1ccccc1Cl)N(C(=O)c1ccccn1)c1cccc(F)c1 (stereo not drawn) [Compound 56] | 0.1 to 1 µM
Cc1ccccc1C(C(=O)NC1CCCCC1)N(C(=O)Cc1cccs1)c1ccccc1F (stereo not drawn) [Compound 39] | 0.1 to 1 µM
O=C(NC1CCCCC1)C(c1ccccn1)N(C(=O)Cc1cccs1)c1cccc(F)c1 (stereo not drawn) [Compound 81] | 1 to 10 µM
CC(C(=O)NCc1ccccc1)(c1cccc(F)c1)N(C(=O)Cc1cccs1)c1ccccc1 (stereo not drawn) [Compound 12] | 10 to 100 µM
O=C(NC1CCCC1)C(c1ccccc1)N(C(=O)Cc1cccs1)c1ccccc1 (stereo not drawn) [Compound 17] | 0.1 to 1 µM
Cc1ccccc1C(C(=O)NC1CCCCC1)N(C(=O)Cc1cccs1)c1ccccc1Br (stereo not drawn) [Compound 98] | 0.1 to 1 µM
O=C(NC1CCCCC1)C(c1cccc(C(F)(F)F)c1)N(C(=O)Cc1cccs1)c1cccc(F)c1 (stereo not drawn) [Compound 96] | 1 to 10 µM
Cc1ccccc1C(C(=O)NC1CCCCC1)N(C(=O)Cc1cccs1)c1ccccc1 (stereo not drawn) [Compound 42] | 0.1 to 1 µM
COc1cccc(N(C(=O)Cc2cccs2)C(C(=O)NC2CCCC2)c2ccccc2)c1 (stereo not drawn) [Compound 1] | 0.1 to 1 µM
Cc1ccc(N(C(=O)c2ccccn2)C(C(=O)NC2CCCCC2)c2ccccc2)cc1F (stereo not drawn) [Compound 7] | 1 to 10 µM
CC(C)C(C(=O)NC1CCCC1)N(C(=O)Cc1cccs1)c1cccc(F)c1 (stereo not drawn) [Compound 16] | ≥ 100 µM

SMILES | IC50
O=C(NC1CCCCC1)C(c1ccccc1Cl)N(C(=O)c1ccccn1)c1ccccc1F (stereo not drawn) [Compound 57] | 1 to 10 µM
O=C(NC1CCCCC1)C(Cc1ccccc1)N(C(=O)Cc1cccs1)c1cccc(F)c1 (stereo not drawn) [Compound 82] | 1 to 10 µM
COc1ccccc1C(C(=O)NC1CCCC1)N(C(=O)Cc1cccs1)c1cccc(F)c1 (stereo not drawn) [Compound 26] | 0.1 to 1 µM
Cc1ccccc1N(C(=O)Cc1cccs1)C(C(=O)NC(C)(C)C)c1cccc(F)c1 (stereo not drawn) [Compound 14] | 10 to 100 µM
Cc1ccccc1C(C(=O)NC1CCCCC1)N(C(=O)Cc1cccs1)C1CCCC1 (stereo not drawn) [Compound 70] | 1 to 10 µM
O=C(NC1CCCCC1)C(c1ccccc1)N(C(=O)c1ccccn1)c1cccc(F)c1 (stereo not drawn) [Compound 55] | 1 to 10 µM
O=C(NC1CCCCC1)C(c1ccc(-n2ccnc2)cc1)N(C(=O)Cc1cccs1)c1cccc(F)c1 (stereo not drawn) [Compound 83] | 10 to 100 µM
CC(=O)c1cccc(C(C(=O)NC2CCCCC2)N(C(=O)Cc2cccs2)c2cccc(F)c2)c1 (stereo not drawn) [Compound 95] | ≥ 100 µM
Cc1ccccc1C(C(=O)NC1CCCC1)N(C(=O)CNS(=O)(=O)c1ccccc1)c1cccc(F)c1 (stereo not drawn) [Compound 28] | 0.1 to 1 µM
Cc1ccccc1C(C(=O)NC1CCCCC1)N(C(=O)Cc1cccs1)c1ccc2c(c1)OCO2 (stereo not drawn) [Compound 101] | 0.1 to 1 µM
Cc1ccccc1C(C(=O)NC1CCCC1)N(C(=O)c1ccccn1)c1cccc(F)c1 (stereo not drawn) [Compound 72] | 1 to 10 µM
O=C(NC1CCCCC1)C(c1ccc(C(F)(F)F)cc1)N(C(=O)Cc1cccs1)c1cccc(F)c1 (stereo not drawn) [Compound 84] | ≥ 100 µM
Cc1ccccc1C(C(=O)NC1CCCCC1)N(C)C(=O)Cc1cccs1 (stereo not drawn) [Compound 40] | ≥ 100 µM
O=C(Cc1cccs1)N(c1cccc(F)c1)C1(C(=O)NC2CCCC2)CCC1 [Compound 22] | ≥ 100 µM
CCOc1cc(C(C(=O)NC2CCCCC2)N(C(=O)Cc2cccs2)c2cccc(F)c2)ccc1OC (stereo not drawn) [Compound 52] | ≥ 100 µM
O=C(NC1CCCCC1)C(c1ccccc1Cl)N(C(=O)Cc1cccs1)c1cccc(F)c1 (stereo not drawn) [Compound 31] | ≤ 0.1 µM
O=C(NC1CCCCC1)C(c1ccccc1F)N(Cc1cccs1)C(=O)Cc1cccs1 (stereo not drawn) [Compound 38] | 1 to 10 µM
O=C(NC1CCCCC1)C(c1ccc(Br)o1)N(C(=O)Cc1cccs1)c1cccc(F)c1 (stereo not drawn) [Compound 87] | 0.1 to 1 µM
CCCCCCCCOc1ccc(C(C(=O)NC2CCCCC2)N(C(=O)Cc2cccs2)c2cccc(F)c2)cc1 (stereo not drawn) [Compound 93] | 0.1 to 1 µM
CCC(C(=O)NC1CCCC1)N(C(=O)Cc1cccs1)c1cccc(F)c1 (stereo not drawn) [Compound 18] | ≥ 100 µM
Cc1ccccc1C(C(=O)NC1CCCCC1)N(C(=O)Cc1cccs1)c1ccc(Br)c(Cl)c1 (stereo not drawn) [Compound 73] | 0.1 to 1 µM

Same assay, conditions: Table 4B; 0.2 μg/ml IDH1 R132H, 50 minutes at room temperature; read-out: IC50, IDH1 R132H Inhibition

SMILES | IC50
Cc1ccccc1C(C(=O)NC(C)(C)C)N(C(=O)Cc1cccs1)c1cccc(F)c1 (stereo not drawn) [Compound 109] | 0.1 to 1 µM
O=C(NC1CCCCC1)C(c1cccc(Cl)c1)N(C(=O)Cc1cccs1)c1cccc(F)c1 (stereo not drawn) [Compound 107] | 0.1 to 1 µM
O=C(NC1CCCCC1)C(c1ccccc1C(F)(F)F)N(C(=O)Cc1cccs1)c1cccc(F)c1 (stereo not drawn) [Compound 108] | 0.1 to 1 µM
O=C(NC1CCCCC1)C(c1c(F)ccc(F)c1Cl)N(C(=O)Cc1cccs1)c1cccc(F)c1 (stereo not drawn) [Compound 105] | 0.1 to 1 µM

Other lines, results leading:

IC50 | SMILES
0.1 to 1 µM | C#CC(=O)N(c1cccc(F)c1)C(C(=O)NC1CCCCC1)c1ccccc1C (stereo not drawn) [Compound 142]
0.1 to 1 µM | CCOC(=O)N1CCC[C@@H]1C(=O)N(c1cccc(F)c1)[C@H](C(=O)NC1CCCCC1)c1ccccc1C [Compound 360]
0.1 to 1 µM | Cc1ccccc1C(C(=O)NC1CCCCC1)N(C(=O)Cc1cccs1)c1cccnc1 (stereo not drawn) [Compound 111]
0.1 to 1 µM | COC(=O)NCC(=O)N(c1ccc(F)c(F)c1)C(C(=O)NC1CCCCC1)c1ccccc1C (stereo not drawn) [Compound 358]
0.1 to 1 µM | O=C(NC1CCCCC1)C(c1cccc(F)c1)N(C(=O)Cc1cccs1)c1cccc(F)c1 (stereo not drawn) [Compound 137]
0.1 to 1 µM | Cc1ccccc1C(C(=O)NC1CCCCC1)N(C(=O)Cc1cccs1)c1ccc(Cl)cc1 (stereo not drawn) [Compound 148]
≤ 0.1 µM | Cc1ccccc1C(C(=O)NC1CCCCC1)N(C(=O)Cc1ccsc1)c1cccc(F)c1 (stereo not drawn) [Compound 150]
0.1 to 1 µM | CNC(=O)N1CCC[C@@H]1C(=O)N(c1cccc(F)c1)[C@H](C(=O)NC1CCCCC1)c1ccccc1C [Compound 375]
0.1 to 1 µM | Cc1ccccc1C(C(=O)NC1CCCCC1)N(C(=O)CCl)c1cccc(F)c1 (stereo not drawn) [Compound 118]
0.1 to 1 µM | Cc1ccccc1C(C(=O)NC1CCCCC1)N(C(=O)CNC(=O)OC(C)(C)C)c1cccc(F)c1 (stereo not drawn) [Compound 368]
0.1 to 1 µM | Cc1ccccc1C(C(=O)NC1CCCCC1)N(Cc1cccs1)C(=O)CNCc1ccncc1 (stereo not drawn) [Compound 169]
0.1 to 1 µM | Cc1ccccc1C(C(=O)NC1CCCCC1)N(C(=O)CNc1cccc(F)c1)c1cccc(F)c1 (stereo not drawn) [Compound 133]
0.1 to 1 µM | COc1ccc(F)c(C(C(=O)NC2CCCCC2)N(C(=O)Cc2cccs2)c2cccc(F)c2)c1 (stereo not drawn) [Compound 128]
0.1 to 1 µM | O=C(NC1CCCCC1)C(c1cc(F)ccc1Br)N(C(=O)Cc1cccs1)c1cccc(F)c1 (stereo not drawn) [Compound 129]
0.1 to 1 µM | Cc1ccccc1C(C(=O)NC1CCCCC1)N(C(=O)CN1CCc2ccccc21)c1cccc(F)c1 (stereo not drawn) [Compound 153]
0.1 to 1 µM | Cc1ccccc1C(C(=O)NC1CCCCC1)N(C(=O)CNC1CC1)c1cccc(F)c1 (stereo not drawn) [Compound 119]
0.1 to 1 µM | CC(=O)N1CCC[C@@H]1C(=O)N(c1cccc(F)c1)[C@H](C(=O)NC1CCCCC1)c1ccccc1C [Compound 371]
0.1 to 1 µM | Cc1ccccc1C(C(=O)NC1CCCCC1)N(C(=O)Cc1cccs1)c1cccc(C(F)(F)F)c1 (stereo not drawn) [Compound 122]
0.1 to 1 µM | Cc1ccc(N(C(=O)Cc2cccs2)C(C(=O)NC2CCCCC2)c2ccccc2C)cc1 (stereo not drawn) [Compound 144]
0.1 to 1 µM | Cc1ccccc1C(C(=O)NC1CCCCC1)N(C(=O)Cn1ccnc1)c1cccc(F)c1 (stereo not drawn) [Compound 156]
0.1 to 1 µM | O=C(NC1CCCCC1)C(c1cccc(Br)c1)N(C(=O)Cc1cccs1)c1cccc(F)c1 (stereo not drawn) [Compound 115]
0.1 to 1 µM | Cc1ccccc1C(C(=O)NC1CCCCC1)N(C(=O)c1ccc2c(c1)OCO2)c1cccc(F)c1 (stereo not drawn) [Compound 132]
0.1 to 1 µM | CNC(=O)N1CCCC[C@@H]1C(=O)N(c1cccc(F)c1)[C@H](C(=O)NC1CCCCC1)c1ccccc1C [Compound 364]
0.1 to 1 µM | Cc1ccccc1[C@@H](C(=O)NC1CCCCC1)N(C(=O)[C@@H]1CCCN1C(=O)OC(C)(C)C)c1cccc(F)c1 [Compound 343]
0.1 to 1 µM | O=C(NC1CCCCC1)C(c1c(Br)ccc(Br)c1F)N(C(=O)Cc1cccs1)c1cccc(F)c1 (stereo not drawn) [Compound 114]
